{"source": "patent US11504336B2", "about": "“Extended release pharmaceutical composition of clozapine” (INTAS PHARMACEUTICALS LTD., priority 2016, dated 2022)", "key": {"[1]": {"settings": "cited from earlier work"}, "[2]": {"test": "Dissolution of the example 7 composition in media of different pH (Basket/100 RPM/900 ml)", "format": "physicochemical", "settings": "0.1N HCl vs phosphate buffer pH 6.0 and pH 6.8"}, "[3]": {"settings": "cited from earlier work", "remark": "listed apart in the source"}}, "data": [{"molecule": "CN1CCN(C2=Nc3cc(Cl)ccc3Nc3ccccc32)CC1", "note": "[Clozapine, 8-chloro-11-(4-methyl-1-piperazinyl)-5H-dibenzo[b,e][1,4]diazepine]", "values": [{"measurement": "dose that reaches systemic circulation unchanged", "setting": "[1]; extensive first pass metabolism", "result": "27-50%"}, {"measurement": "plasma half-life, mean value", "setting": "[1]; wide inter-individual variation", "result": "6 ± 1.5", "unit": "h"}, {"measurement": "solubility behaviour concluded from dissolution data", "setting": "[2]", "result": "pH dependent solubility"}, {"measurement": "solubility in acidic pH", "setting": "[3]; acidic pH", "result": "soluble in acidic pH"}, {"measurement": "solubility in basic pH", "setting": "[3]; basic pH", "result": "practically insoluble in basic pH"}, {"measurement": "solubility in intestinal pH", "setting": "[3]; intestinal pH", "result": "insoluble in intestinal pH"}, {"measurement": "solubility in water", "setting": "[3]; water", "result": "very slightly soluble in water"}]}]}
